What follows are compounds tested against HIV-1 protease (Human immunodeficiency virus type 1 group M subtype B, UniProt P04585) (assay: biochemical). Details: HIV-1 protease; upper line of each compound's entry; read-out: Ki (enzyme).

`O=C(NC(Cc1ccccc1)C(O)CN(OC1CCCC1)S(=O)(=O)c1cccc(NCC(=O)N2CCOCC2)c1)OC1COC2OCCC12` [Compound 87, (3R,3aS,6aR)hexahydrofuro[2,3-b]furan-3-yl N-(1S,2R)-1-benzyl-3-[(cyclopentyloxy)(3-[(2-morpholino-2-oxoethyl)amino]phenylsulfonyl)amino]-2-hydroxypropylcarbamate and (3S,3aR,6aS)hexahydrofuro[2,3-b]furan-3-yl N-(1S,2R)-1-benzyl-3-[(cyclopentyloxy)(3-[(2-morpholino-2-oxoethyl)amino]phenylsulfonyl)amino]-2-hydroxypropylcarbamate] and `NC(=O)CNc1cccc(S(=O)(=O)N(CC(O)C(Cc2ccccc2)NC(=O)OC2COC3OCCC23)OC2CCCC2)c1` [Compound 85, (3R,3aS,6aR)hexahydrofuro[2,3-b]furan-3-yl N-(1S,2R)-3-[(3-[(2-amino-2-oxoethyl)amino]phenylsulfonyl)(cyclopentyloxy)amino]-1-benzyl-2-hydroxypropylcarbamate and (3S,3aR,6aS)hexahydrofuro[2,3-b]furan-3-yl N-(1S,2R)-3-[(3[(2-amino-2-oxoethyl)amino]phenylsulfonyl) (cyclopentyloxy)amino]-1-benzyl-2-hydroxypropylcarbamate] cannot be ordered by Ki: under 1 nM for the first, under 1 nM for the second.

First: Nc1cccc(S(=O)(=O)N(C[C@@H](OP(=O)(O)O)[C@H](Cc2ccccc2)NC(=O)O[C@H]2CO[C@H]3OCC[C@H]32)OC2CCCC2)c1 [Compound 100, Phosphate ester of (3R,3aS,6aR)hexahydrofuro[2,3-b]furan-3-yl N-(1S,2R)-3-[[(3-aminophenyl)sulfonyl](cyclopentyloxy)amino]-1-benzyl-2-hydroxypropylcarbamate]
Second: CN(C)c1cccc(S(=O)(=O)N(CC(O)C(Cc2ccccc2)NC(=O)OC2COC3OCCC23)OC2CCCC2)c1 [Compound 43, (3R,3aS,6aR)hexahydrofuro[2,3-b]furan-3-yl N-(1S,2R)-3-[[(3-N,N-dimethylaminophenyl)sulfonyl)(cyclopentyloxy)amino)-1-benzyl-2-hydroxypropylcarbamate]
The Ki of the first is higher: 10 to 100 nM for the first, under 1 nM for the second.

`COC(=O)CC(=O)Nc1nc2cc(S(=O)(=O)N(C[C@@H](O)[C@H](Cc3ccccc3)NC(=O)OC(C)(C)C)OC3CCCC3)ccc2[nH]1` [Compound 13, Tert-butyl N-(1S,2R)-1-benzyl-3-[(cyclopentyloxy)(2-[(methyl3-oxopropionate)amino]-1H-benzimidazol-5-ylsulfonyl)amino]-2-hydroxypropylcarbamate] and `COc1cc(C(=O)Nc2nc3cc(S(=O)(=O)N(C[C@@H](O)[C@H](Cc4ccccc4)NC(=O)OC(C)(C)C)OC4CCCC4)ccc3[nH]2)cc(OC)c1OC` [Compound 12, Tert-butyl N-(1S,2R)-1-benzyl-3-[(cyclopentyloxy)(2-[(3,4,5-trimethoxyphenyl-carbonyl)amino]-1H-benzimidazol-5-ylsulfonyl)amino]-2-hydroxypropylcarbamate] cannot be ordered by Ki: 10 to 100 nM for the first, over 10 nM for the second.

`O=C(N[C@@H](Cc1ccccc1)[C@H](O)CN(OC1CCCC1)S(=O)(=O)c1cccc(OCCN2CCOCC2)c1)O[C@H]1CO[C@H]2OCC[C@H]21` [Compound 99, (3R,3aS,6aR)hexahydrofuro[2,3-b]furan-3-yl N-[(1S, 2R)-1-benzyl-3-((cyclopentyloxy)[3-(2-morpholinoethoxy)phenyl]sulfonylamino)-2-hydroxypropyl]carbamate] and `O=C(N[C@@H](Cc1ccccc1)[C@H](O)CN(OC1CCCC1)S(=O)(=O)c1ccc(OCCN2CCOCC2)cc1)O[C@H]1CO[C@H]2OCC[C@H]21` [Compound 98, (3R,3aS,6aR)hexahydrofuro[2,3-b]furan-3-yl N-[(1S,2R)-1-benzyl-3-((cyclopentyloxy)[4-(2-morpholinoethoxy)phenyl]sulfonylamino)-2-hydroxypropyl]carbamate] cannot be ordered by Ki: under 1 nM for the first, under 1 nM for the second.

`O=C(NC(Cc1ccccc1)C(O)CN(OC1CCCC1)S(=O)(=O)c1ccc2[nH]nnc2c1)OC1COC2OCCC12` [Compound 91, (3aS,6aR)Hexahydrofuro[2,3-b]furan-3-yl N-(1S,2R)-1-benzyl-3-[(cyclopentyloxy)(benzotriazole-5-ylsulfonyl)amino]-2-hydroxypropylcarbamate] and `O=C(N[C@@H](Cc1ccccc1)[C@H](O)CN(OC1CCCC1)S(=O)(=O)c1ccc2[nH]nnc2c1)OC1COCOC1` [Compound 92, 1,3-Dioxan-5-yl N-(1S,2R)-1-benzyl-3-[(cyclopentyloxy)(benzotriazole-5-ylsulfonyl)amino]-2-hydroxypropylcarbamate] cannot be ordered by Ki: under 1 nM for the first, under 1 nM for the second.

`O=C(N[C@@H](Cc1ccccc1)[C@H](O)CN(OC1CCCC1)S(=O)(=O)c1ccc(OCCO)cc1)O[C@H]1CO[C@H]2OCC[C@H]21` [Compound 42, (3R,3aS,6aR)hexahydrofuro[2,3-b]furan-3-yl N-[(1S,2R)-1-benzyl-3-((cyclopentyloxy)[4-(2-hydroxyethoxy)phenyl]sulfonylamino)-2-hydroxypropyl]carbamate] and `CC(=O)NCCNc1cccc(S(=O)(=O)N(CC(O)C(Cc2ccccc2)NC(=O)OC2COC3OCCC23)OC2CCCC2)c1` [Compound 84, (3R,3aS,6aR)hexahydrofuro[2,3-b]furan-3-yl N-(1S,2R)-3-[[(3-[2-(acetylamino)ethyl]aminophenyl)sulfonyl](cyclopentyloxy)amino]-1-benzyl-2-hydroxypropylcarbamate and (3S,3aR,6aS)hexahydrofuro[2,3-b]furan-3-yl N-(1S,2R)-3-[[(3-[2-(acetylamino)ethyl]aminophenyl)sulfonyl](cyclopentyloxy)amino]-1-benzyl-2-hydroxypropylcarbamate] cannot be ordered by Ki: under 1 nM for the first, under 1 nM for the second.

`CC(C)ON(C[C@@H](O)[C@H](Cc1ccccc1)NC(=O)O[C@H]1CCOC1)S(=O)(=O)c1ccc2[nH]cnc2c1` [Compound 63, (3S)tetrahydro-3-furanyl N-(1S,2R)-3-[(1H-1,3-benzimidazol-5-ylsulfonyl)(isopropoxy)amino]-1-benzyl-2-hydroxypropylcarbamate] was tested, and the Ki was 1 to 10 nM.

These compounds were tested on HIV-1 (strain IIIB) (assay: microbe, parasite or virus in culture). Details: Human immunodeficiency virus 1, 120 h; MT4 cells infected with HIV-1 strain IIIB, 5 days; lower line of each compound's entry; read-out: IC50 (MT-4 cells).
Assay type: cell-based

`O=C(NC(Cc1ccccc1)C(O)CN(OC1CCCC1)S(=O)(=O)c1cccc(NCC(=O)N2CCOCC2)c1)OC1COC2OCCC12` [Compound 87, (3R,3aS,6aR)hexahydrofuro[2,3-b]furan-3-yl N-(1S,2R)-1-benzyl-3-[(cyclopentyloxy)(3-[(2-morpholino-2-oxoethyl)amino]phenylsulfonyl)amino]-2-hydroxypropylcarbamate and (3S,3aR,6aS)hexahydrofuro[2,3-b]furan-3-yl N-(1S,2R)-1-benzyl-3-[(cyclopentyloxy)(3-[(2-morpholino-2-oxoethyl)amino]phenylsulfonyl)amino]-2-hydroxypropylcarbamate] and `Nc1cccc(S(=O)(=O)N(C[C@@H](OP(=O)(O)O)[C@H](Cc2ccccc2)NC(=O)O[C@H]2CO[C@H]3OCC[C@H]32)OC2CCCC2)c1` [Compound 100, Phosphate ester of (3R,3aS,6aR)hexahydrofuro[2,3-b]furan-3-yl N-(1S,2R)-3-[[(3-aminophenyl)sulfonyl](cyclopentyloxy)amino]-1-benzyl-2-hydroxypropylcarbamate] cannot be ordered by IC50: at most 100 nM for the first, 100 to 500 nM for the second.

Same assay, conditions: MT4 cells infected with HIV-1 strain IIIB, 5 days; lower line of each compound's entry; read-out: IC50 (MT-4 cells)

`Nc1ccc(S(=O)(=O)N(CC(O)C(Cc2ccccc2)NC(=O)OC2COC3OCCC23)OC2CCCC2)cc1` [Example 172, (3S,3aR,6aS)hexahydrofuro[2,3-b]furan-3-yl N-(1S,2R)-3-[[(4-aminophenyl)sulfonyl](cyclopentyloxy)amino]-1-benzyl-2-hydroxypropyl carbamate] and `CS(=O)(=O)Nc1nc2cc(S(=O)(=O)N(C[C@@H](O)[C@H](Cc3ccccc3)NC(=O)OC3COCOC3)OC3CCCC3)ccc2[nH]1` [Compound 132, 1,3-Dioxan-5-yl-N-((1S,2R)-1-benzyl-3-(cyclopentyloxy)(2-[(methylsulfonyl)amino)benzimidazol-5-ylsulfonyl)amino-2-hydroxypropyl)carbamate] cannot be ordered by IC50: at most 100 nM for the first, at most 100 nM for the second.

In the case of `COc1ccc(S(=O)(=O)N(C[C@@H](O)[C@H](Cc2ccccc2)NC(=O)OC(C)(C)C)OC(C)CCC#N)cc1` (stereo partly shown) [Compound 152, tert-butyl 1-benzyl-3-{(3-cyano-1-methylpropoxy)[(4-methoxyphenyl)sulfonyl]amino}-2-hydroxypropylcarbamate], the IC50 is reported as 500 to 1000 nM.

Same assay, conditions: […]; lower line of each compound's entry; read-out: IC50 (MT-4 cells)

With `O=C(N[C@@H](Cc1ccccc1)[C@H](O)CN(OC1CCCC1)S(=O)(=O)c1ccc(O)cc1)O[C@H]1CO[C@H]2OCC[C@H]21` [Compound 41, (3R,3aS,6aR)hexahydrofuro[2,3-b]furan-3-yl N-((1S,2R)-1-benzyl-3-(cyclopentyloxy)[(4-hydroxyphenyl)sulfonyl]amino-2-hydroxypropyl)carbamate] the IC50 was at most 100 nM.

Reference: patent publication US20040097594A1 (priority 1998, published 2004)
